Results published in ChEMBL document CHEMBL1201862, “PubChem BioAssay data set” (2004).
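Where inhibition never reached the appropriate level, the endpoint shown equals the highest concentration tested. Otherwise, values were interpolated linearly from a five-concentration, 48-hour dose response in 96-well plates. Abbreviation: GI50, concentration required for 50% inhibition of growth.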 Active and inactive are the calls of the source. Cut-off read from the data, not from the text of the source: active = GI50 up to about 1.1 µM and inactive = higher.

Assays:
Assay in all cases: NCI-60 cell line screen, 48 h
UACC-62 = system: UACC-62
TK-10 = system: TK-10
MDA-MB-435 = system: MDA-MB-435
OVCAR-5 = system: OVCAR-5
SK-MEL-5 = system: SK-MEL-5
CCRF-CEM = system: CCRF-CEM
HCT-116 = system: HCT-116
NCI/ADR-RES = system: NCI/ADR-RES
OVCAR-4 = system: OVCAR-4
CAKI-1 = system: CAKI-1
SNB-19 = system: SNB-19
786-0 = system: 786-0
MDA-N = system: MDA-N
U-251 = system: U-251
M14 = system: M14
K562 = system: K562
HL-60 = system: HL-60
MCF7 = system: MCF7
SK-OV-3 = system: SK-OV-3
T47D = system: T47D
BT-549 = system: BT-549
UO-31 = system: UO-31
HCC 2998 = system: HCC 2998
NCI-H23 = system: NCI-H23
ACHN = system: ACHN
HT-29 = system: HT-29
SK-MEL-2 = system: SK-MEL-2
SF-539 = system: SF-539
HCT-15 = system: HCT-15
MDA-MB-231 = system: MDA-MB-231
OVCAR-8 = system: OVCAR-8
SW-620 = system: SW-620
SK-MEL-28 = system: SK-MEL-28
SF-268 = system: SF-268
Hs-578T = system: Hs-578T
MOLT-4 = system: MOLT-4
SR = system: SR
HOP-92 = system: HOP-92
NCI-H522 = system: NCI-H522
LOX IMVI = system: LOX IMVI
OVCAR-3 = system: OVCAR-3
NCI-H460 = system: NCI-H460
SF-295 = system: SF-295
EKVX = system: EKVX
HOP-62 = system: HOP-62
COLO 205 = system: COLO 205
IGROV-1 = system: IGROV-1
NCI-H226 = system: NCI-H226
Malme-3M = system: Malme-3M
A549 = system: A549
RPMI-8226 = system: RPMI-8226
SNB-75 = system: SNB-75
DU-145 = system: DU-145
SN12C = system: SN12C
A498 = system: A498
KM12 = system: KM12
PC-3 = system: PC-3
RXF 393 = system: RXF 393
UACC-257 = system: UACC-257

Measured: GI50

CC(C)(CO[C@H]1C[C@H]2CC[C@@]1(C)C2(C)C)[N+](=O)[O-]
22.6 µM: HCT-15
active: HL-60 0.0363 µM
inactive: UACC-62 19.9 µM | TK-10 17.1 µM | MDA-MB-435 18.8 µM | OVCAR-5 16.8 µM | SK-MEL-5 17.3 µM | CCRF-CEM 18.8 µM | HCT-116 15.3 µM | NCI/ADR-RES 27.9 µM | OVCAR-4 30.3 µM | CAKI-1 20 µM | SNB-19 14.1 µM | 786-0 14.3 µM | MDA-N 15.6 µM | U-251 16.7 µM | M14 13.3 µM | K562 13.9 µM | MCF7 22.9 µM | SK-OV-3 29.1 µM | T47D 19.6 µM | BT-549 21.5 µM | UO-31 12.5 µM | HCC 2998 2.07 µM | NCI-H23 25.9 µM | ACHN 33.6 µM | HT-29 13 µM | SK-MEL-2 16.6 µM | SF-539 16.4 µM | MDA-MB-231 18.1 µM | OVCAR-8 22.6 µM | SW-620 22.2 µM | SK-MEL-28 18.5 µM | SF-268 33 µM | Hs-578T 27.4 µM | MOLT-4 18.1 µM | SR 5.25 µM | HOP-92 14.6 µM | NCI-H522 20.4 µM | LOX IMVI 18.1 µM | OVCAR-3 22.8 µM | NCI-H460 19.6 µM | SF-295 18.6 µM | EKVX 16.7 µM | HOP-62 19.5 µM | COLO 205 15.6 µM | IGROV-1 30.8 µM | NCI-H226 16.1 µM | Malme-3M 20.3 µM | A549 25.5 µM | RPMI-8226 17.7 µM | SNB-75 19.4 µM | DU-145 17.3 µM | SN12C 27.4 µM | A498 22.7 µM | KM12 17.4 µM | PC-3 20.9 µM | RXF 393 11 µM | UACC-257 18.5 µM

COc1ccc(O)c(/C=N/NC(=S)N2CCCCC2)c1
active: CCRF-CEM 0.569 µM | M14 0.592 µM | HL-60 0.131 µM | UO-31 0.746 µM | ACHN 0.906 µM | SF-268 0.948 µM | SR 0.425 µM | NCI-H522 0.948 µM | LOX IMVI 0.767 µM | OVCAR-3 0.319 µM | NCI-H226 1.07 µM | RPMI-8226 1.05 µM
0.611 µM: HCT-15
inactive: UACC-62 2.54 µM | TK-10 3.61 µM | MDA-MB-435 6.07 µM | OVCAR-5 5.9 µM | SK-MEL-5 2.02 µM | HCT-116 2.3 µM | NCI/ADR-RES 1.77 µM | OVCAR-4 4.59 µM | CAKI-1 2.72 µM | SNB-19 4.51 µM | 786-0 1.15 µM | MDA-N 7.8 µM | U-251 1.85 µM | K562 3.05 µM | MCF7 7.96 µM | SK-OV-3 2.16 µM | T47D 6.71 µM | BT-549 3.77 µM | HCC 2998 1.87 µM | NCI-H23 2.15 µM | HT-29 8.17 µM | SK-MEL-2 25.1 µM | SF-539 3.77 µM | MDA-MB-231 9.23 µM | OVCAR-8 1.86 µM | SW-620 2.88 µM | SK-MEL-28 3.17 µM | Hs-578T 31 µM | MOLT-4 1.3 µM | HOP-92 5.18 µM | NCI-H460 1.22 µM | SF-295 3.33 µM | EKVX 4.38 µM | HOP-62 1.35 µM | COLO 205 2.98 µM | IGROV-1 2.78 µM | Malme-3M 1.71 µM | A549 1.81 µM | SNB-75 10.5 µM | DU-145 1.74 µM | SN12C 4.92 µM | A498 12.1 µM | KM12 4.38 µM | PC-3 5 µM | RXF 393 7.73 µM | UACC-257 6.04 µM

COc1ccc(CCN2C(=O)C=CC2=O)cc1OC
inactive: UACC-62 17.3 µM | TK-10 15.2 µM | MDA-MB-435 17.5 µM | OVCAR-5 18.4 µM | SK-MEL-5 17.3 µM | CCRF-CEM 1.85 µM | HCT-116 3.53 µM | NCI/ADR-RES 25.4 µM | OVCAR-4 1.88 µM | CAKI-1 13.3 µM | SNB-19 19.5 µM | 786-0 3.07 µM | MDA-N 17.8 µM | U-251 19.5 µM | M14 9.84 µM | K562 2.59 µM | HL-60 8.39 µM | MCF7 17.3 µM | SK-OV-3 18.8 µM | T47D 7.16 µM | BT-549 17.5 µM | UO-31 1.63 µM | HCC 2998 17.4 µM | NCI-H23 22 µM | ACHN 1.77 µM | HT-29 6.31 µM | SK-MEL-2 5.2 µM | SF-539 17.3 µM | MDA-MB-231 14.1 µM | OVCAR-8 19.8 µM | SW-620 2.28 µM | SK-MEL-28 16.4 µM | SF-268 22.1 µM | Hs-578T 32.4 µM | MOLT-4 2.43 µM | SR 2.25 µM | HOP-92 15.4 µM | NCI-H522 1.52 µM | LOX IMVI 18.5 µM | OVCAR-3 18 µM | NCI-H460 21.5 µM | SF-295 17.7 µM | EKVX 19.2 µM | HOP-62 22.5 µM | COLO 205 1.83 µM | IGROV-1 18 µM | NCI-H226 5.62 µM | Malme-3M 13.8 µM | A549 23 µM | RPMI-8226 1.77 µM | SNB-75 20.5 µM | DU-145 16.5 µM | SN12C 17.5 µM | A498 16.7 µM | KM12 19.6 µM | PC-3 18.7 µM | RXF 393 4.9 µM | UACC-257 16.8 µM
1.87 µM: HCT-15

Cc1nc2ccc(S(=O)(=O)NS(=O)(=O)c3ccc(-c4ccccc4)cc3)cc2c(=O)n1NS(=O)(=O)c1ccc(-c2ccccc2)cc1
inactive: UACC-62 > 100 µM | TK-10 > 100 µM | MDA-MB-435 > 100 µM | OVCAR-5 > 100 µM | SK-MEL-5 > 100 µM | CCRF-CEM > 100 µM | HCT-116 > 100 µM | NCI/ADR-RES > 100 µM | OVCAR-4 60 µM | CAKI-1 > 100 µM | SNB-19 > 100 µM | 786-0 > 100 µM | MDA-N > 100 µM | U-251 > 100 µM | M14 > 100 µM | K562 > 100 µM | HL-60 > 100 µM | MCF7 > 100 µM | SK-OV-3 > 100 µM | T47D > 100 µM | BT-549 > 100 µM | UO-31 > 100 µM | HCC 2998 > 100 µM | NCI-H23 > 100 µM | ACHN > 100 µM | HT-29 > 100 µM | SK-MEL-2 > 100 µM | SF-539 > 100 µM | MDA-MB-231 > 100 µM | OVCAR-8 77.4 µM | SW-620 > 100 µM | SK-MEL-28 > 100 µM | SF-268 > 100 µM | Hs-578T > 100 µM | MOLT-4 > 100 µM | SR > 100 µM | HOP-92 23.4 µM | NCI-H522 > 100 µM | LOX IMVI > 100 µM | OVCAR-3 > 100 µM | NCI-H460 > 100 µM | SF-295 > 100 µM | EKVX 68.2 µM | HOP-62 > 100 µM | COLO 205 > 100 µM | IGROV-1 38.3 µM | NCI-H226 > 100 µM | Malme-3M > 100 µM | A549 > 100 µM | RPMI-8226 > 100 µM | SNB-75 > 100 µM | DU-145 > 100 µM | SN12C > 100 µM | KM12 > 100 µM | PC-3 > 100 µM | RXF 393 > 100 µM | UACC-257 > 100 µM
> 100 µM: HCT-15
active: A498 0.753 µM
